Results on 14 molecules are retold here after patent US20250228239A1, “MOLECULES HAVING PESTICIDAL UTILITY, AND INTERMEDIATES, COMPOSITIONS, AND PROCESSES, RELATED THERETO” (priority 2024, published 2025).

Common to all, as to assay type: in vivo
Assay [1] deals with Beet Armyworm (Spodoptera exigua, LAPHEG). The experiment in a line: Bioassays on Beet Armyworm (BAW), 128-well diet tray assay. As to conditions: Spodoptera exigua. The essentials: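 Larvae at second instar are exposed on dried, compound-treated diet (50 μg/cm^2, delivered in 90:10 acetone-water) in eight replicate wells. After five to seven days at 25° C., 14:10 light-dark, percent mortality in each well is scored and the eight wells averaged.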

The test system of assay [2] is Cabbage Looper (Trichoplusia ni, TRIPNI). The assay is described as follows: Bioassays on Cabbage Looper (CL), 128-well diet tray assay. The note with it: Trichoplusia ni. The essentials:
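Second-instar larvae (1–5 per well) placed on artificial diet surface-treated with 50 μg/cm^2 test molecule applied in 90:10 acetone-water and dried. Held at 25° C., 14:10 light-dark, for five to seven days. Percent mortality scored per well and averaged over eight wells.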

Assay [3] deals with Yellow Fever Mosquito (Aedes aegypti, AEDSAE). As to conditions: for YFM rating: Table ABC / ABC-DP rating. The essentials: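 Rating-scale grades reflect larval mortality scored per well after 3 days at room temperature under non-evaporative lids. Larvae (~1 day old, hatched overnight in liver-powder water) were added to six daughter plates per compound, prepared from a 4000 ppm DMSO stock diluted in 90:10 water/acetone.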

Setting [4] is: Beet Armyworm, Table ABC / ABC-DP rating, read-out: BAW rating.
Setting [5] is: Cabbage Looper, Table ABC / ABC-DP rating, read-out: CL rating.
The mark [6] stands for this setting: Beet Armyworm, rating class, read-out: BAW.
The mark [7] stands for this setting: Cabbage Looper, rating class, read-out: CL.
Where [8] appears, read: Yellow Fever Mosquito, rating class.
The mark [9] stands for this setting: Table ABC: Biological Results, species BAW, read-out: BAW.
The mark [10] stands for this setting: Table ABC: Biological Results, species CL, read-out: CL.
The mark [11] stands for this setting: Table ABC: Biological Results, species YFM.

Structures are written as SMILES. Like-named read-outs stand apart in the source and are kept apart here.

As to `O=C(COC(F)(F)C(F)(F)F)Nc1c(F)ccc(NC(=O)c2cc(NC(=O)[C@H]3[C@H](c4ccc(F)c(C(F)(F)F)c4)C3(Cl)Cl)ccc2Cl)c1F` [F1808, 2-Chloro-5-((1R,3R)-2,2-dichloro-3-(4-fluoro-3-(trifluoromethyl)phenyl)cyclopropane-1-carboxamido)-N-(2,4-difluoro-3-(2-(perfluoroethoxy)acetamido)phenyl)benzamide], the pest or weed control at 50 µg/cm2 in assay [1] (setting [4]) and in assay [2] (setting [5]) was 50 to 100% throughout. Moreover, in assay [3] (Yellow Fever Mosquito), the YFM rating entry is given as “B (More than 0 – Less than 80)”.
For the molecule `CC(=O)Nc1c(F)ccc(NC(=O)c2cc(NC(=O)[C@H]3[C@H](c4cc(Cl)cc(Cl)c4)C3(Cl)Cl)cc(F)c2F)c1F` [F1439, N-(3-Acetamido-2,4-difluorophenyl)-5-((1R,3R)-2,2-dichloro-3-(3,5-dichlorophenyl)cyclopropane-1-carboxamido)-2,3-difluorobenzamide], the pest or weed control at 50 µg/cm2 in assay [1] (setting [6]) and in assay [2] (setting [7]) was 50 to 100% each time. Also, the YFM entry in assay [3] (setting [8]) is “A (80–100)”.
Regarding `Cc1c(F)cc(NC(=O)[C@H]2[C@H](c3ccc(F)c(Cl)c3)C2(Cl)Cl)cc1C(=O)Nc1ccc(F)cc1F` (relative stereo) [F1279, trans-5-(2,2-Dichloro-3-(3-chloro-4-fluorophenyl)cyclopropane-1-carboxamido)-N-(2,4-difluorophenyl)-3-fluoro-2-methylbenzamide], the pest or weed control at 50 µg/cm2 in assay [1] (setting [9]) and in assay [2] (setting [10]) was 50 to 100% throughout. Further, the YFM result in assay [3] (setting [11]) is “B (More than 0 – Less than 80)”.
Regarding `Cc1cc(NC(=O)[C@H]2[C@H](c3ccc(F)c(Cl)c3)C2(Cl)Cl)cc(C(=O)NCC(F)(F)F)c1Cl` (relative stereo) [F2038, trans-2-Chloro-5-(2,2-dichloro-3-(3-chloro-4-fluorophenyl)cyclopropane-1-carboxamido)-3-methyl-N-(2,2,2-trifluoroethyl)benzamide], the pest or weed control at 50 µg/cm2 in assay [1] (setting [4]) and in assay [2] (setting [5]) was 50 to 100% in each case. In assay [3] (Yellow Fever Mosquito), the YFM rating result is “A (80–100)”.
As for `O=C(Nc1ccc(F)c(NC(=O)C2CC2(F)F)c1F)c1cc(NC(=O)[C@H]2[C@H](c3ccc(Cl)c(Cl)c3)C2(Cl)Cl)ccc1Cl` (stereo partly drawn) [F1608, 2-Chloro-5-((1R,3R)-2,2-dichloro-3-(3,4-dichlorophenyl)cyclopropane-1-carboxamido)-N-(3-(2,2-difluorocyclopropane-1-carboxamido)-2,4-difluorophenyl)benzamide], the pest or weed control at 50 µg/cm2 in assay [1] (setting [6]) and in assay [2] (setting [7]) was 50 to 100% in each case. For the same molecule, the YFM result in assay [3] (setting [8]) was “A (80–100)”.
On to `CN(C(=O)c1cc(NC(=O)[C@H]2[C@H](c3ccc(Cl)c(Cl)c3)C2(Cl)Cl)ccc1Cl)c1ccc(F)c(NC(=O)COC(F)(F)F)c1F` [F1793, 2-Chloro-5-((1R,3R)-2,2-dichloro-3-(3,4-dichlorophenyl)cyclopropane-1-carboxamido)-N-(2,4-difluoro-3-(2-(trifluoromethoxy)acetamido)phenyl)-N-methylbenzamide], for which the pest or weed control at 50 µg/cm2 in assay [1] (setting [4]) and in assay [2] (setting [5]) was 50 to 100% in each case. Also, the YFM rating entry in assay [3] (Yellow Fever Mosquito) was “A (80–100)”.
Turning to `O=C(Nc1ccc(F)c(NC(=O)C(F)(F)F)c1)c1cc(NC(=O)[C@H]2[C@H](c3cc(Cl)cc(Cl)c3)C2(Cl)Cl)ccc1Cl` [F1813, 2-Chloro-5-((1R,3R)-2,2-dichloro-3-(3,5-dichlorophenyl)cyclopropane-1-carboxamido)-N-(4-fluoro-3-(2,2,2-trifluoroacetamido)phenyl)benzamide], the pest or weed control at 50 µg/cm2 in assay [1] (setting [4]) and in assay [2] (setting [5]) was 50 to 100% throughout. Further, the YFM rating entry in assay [3] (Yellow Fever Mosquito) is listed as “A (80–100)”.
As to `O=C(CC(F)(F)F)Nc1c(F)ccc(NC(=O)c2cc(NC(=O)[C@H]3[C@H](c4cccc(C(F)(F)F)c4)C3(Cl)Cl)ccc2Cl)c1F` [F1738, 2-Chloro-5-((1R,3R)-2,2-dichloro-3-(3-(trifluoromethyl)phenyl)cyclopropane-1-carboxamido)-N-(2,4-difluoro-3-(3,3,3-trifluoropropanamido)phenyl)benzamide], the pest or weed control at 50 µg/cm2 in assay [1] (setting [6]) and in assay [2] (setting [7]) was 50 to 100% each time. Moreover, the YFM result in assay [3] (setting [8]) is “A (80–100)”.
Regarding `Nc1c(F)ccc(NC(=O)c2cc(NC(=O)[C@H]3[C@H](c4cccc(Cl)c4)C3(Cl)Cl)ccc2Cl)c1F` (relative stereo) [F1595, trans-N-(3-Amino-2,4-difluorophenyl)-2-chloro-5-(2,2-dichloro-3-(3-chlorophenyl)cyclopropane-1-carboxamido)benzamide], the pest or weed control at 50 µg/cm2 in assay [1] (setting [6]) and in assay [2] (setting [7]) was 50 to 100% each time. Besides, the YFM result in assay [3] (setting [8]) was “A (80–100)”.
Turning to `CC(OC(F)(F)F)C(=O)Nc1c(F)ccc(NC(=O)c2cc(NC(=O)[C@H]3[C@H](c4ccc(F)c(C(F)(F)F)c4)C3(Cl)Cl)ccc2Cl)c1F` (stereo partly drawn) [F1771, 2-Chloro-5-((1R,3R)-2,2-dichloro-3-(4-fluoro-3-(trifluoromethyl)phenyl)cyclopropane-1-carboxamido)-N-(2,4-difluoro-3-(2-(trifluoromethoxy)propanamido)phenyl)benzamide], the pest or weed control at 50 µg/cm2 in assay [1] (setting [4]) and in assay [2] (setting [5]) was 50 to 100% throughout. In addition, in assay [3] (Yellow Fever Mosquito), the YFM rating entry is on record as “A (80–100)”.
In the case of `O=C(Nc1ccc(F)cc1)c1cc(NC(=O)[C@H]2[C@H](c3ccc(F)c(C(F)(F)F)c3)C2(Cl)Cl)c(F)cc1Cl` [F1725, 2-Chloro-5-((1R,3R)-2,2-dichloro-3-(4-fluoro-3-(trifluoromethyl)phenyl)cyclopropane-1-carboxamido)-4-fluoro-N-(4-fluorophenyl)benzamide], the pest or weed control at 50 µg/cm2 in assay [1] (setting [6]) and in assay [2] (setting [7]) was 50 to 100% in each case. Further, the YFM result in assay [3] (setting [8]) is on record as “A (80–100)”.
`CCOC(C)C(=O)Nc1c(F)ccc(NC(=O)c2cc(NC(=O)[C@H]3[C@H](c4ccc(Cl)c(Cl)c4)C3(Cl)Cl)ccc2Cl)c1F` (stereo partly drawn) [F1604, 2-Chloro-5-((1R,3R)-2,2-dichloro-3-(3,4-dichlorophenyl)cyclopropane-1-carboxamido)-N-(3-(2-ethoxypropanamido)-2,4-difluorophenyl)benzamide]: the pest or weed control at 50 µg/cm2 in assay [1] (setting [6]) and in assay [2] (setting [7]) was 50 to 100% throughout. For the same molecule, the YFM entry in assay [3] (setting [8]) is recorded as “A (80–100)”.
With `Nc1c(F)ccc(NC(=O)c2cc(NC(=O)[C@H]3[C@H](c4cc(Br)cc(C(F)(F)F)c4)C3(Cl)Cl)ccc2Cl)c1F` (relative stereo) [F1075, trans-N-(3-Amino-2,4-difluorophenyl)-5-(3-(3-bromo-5-(trifluoromethyl)phenyl)-2,2-dichlorocyclopropane-1-carboxamido)-2-chlorobenzamide], the pest or weed control at 50 µg/cm2 in assay [1] (setting [9]) and in assay [2] (setting [10]) was 50 to 100% throughout. The YFM result in assay [3] (setting [11]) was “A (80–100)”.
As to `O=C(Nc1ccc(F)cc1F)c1cc(NC(=O)[C@H]2[C@H](c3cc(F)c(Cl)c(C(F)(F)F)c3)C2(Cl)Cl)ccc1Cl` (relative stereo) [F1163, trans-2-Chloro-5-(2,2-dichloro-3-(4-chloro-3-fluoro-5-(trifluoromethyl)phenyl)cyclopropane-1-carboxamido)-N-(2,4-difluorophenyl)benzamide], the pest or weed control at 50 µg/cm2 in assay [1] (setting [9]) and in assay [2] (setting [10]) was 50 to 100% in each case. Moreover, the YFM result in assay [3] (setting [11]) is on record as “A (80–100)”.
